Test results: patent EP2420842A1, “In vivo imaging of calcified lesions” (Rheinisch-Westfälische Technische Hochschule Aachen (RWTH), priority 2010, dated 2012)

B1: Alexa Fluor® 488-labelled fetuin-A: Fetuin-A monomer (Sigma Aldrich, F2379), purified by gel chromatography, coupled to Alexa Fluor® 488 dye (conjugate, UniProt P12763 19-359, looked up)
Alpha-2-HS-glycoprotein: IPLDPVAGYKEPACDDPDTEQAALAAVDYINKHLPRGYKHTLNQIDSVKVWPRRPTGEVYDIEIDTLETTCHVLDPTPLANCSVRQQTQHAVEGDCDIHVLKQDGQFSVLFTKCDSSPDSAEDVRKLCPDCPLLAPLNDSRVVHAVEVALATFNAESNGSYLQLVEISRAQFVPLPVSVSVEFAVAATDCIAKEVVDPTKCNLLAEKQYGFCKGSVIQKALGGEDVRVTCTLFQTQPVIPQPQPDGAEAEAPSAVPDAAGPTPSAAGPPVASVVVGPSVVAVPLPLHRAHYDLRHTFSGVASVESSSGEAFHVGKTPIVGQPSIPGGPVRLCPGRIRYFKI
modifications: Alexa Fluor 488 dye
notes: Fetuin-A monomer (Sigma Aldrich, F2379), purified by gel chromatography, coupled to Alexa Fluor® 488 dye

Columns and labels:
calcifications [1] = test: Explanted organ fluorescence, 2D reflectance imaging and ROI quantification after co-injection of both probes; format: in vivo, DBA/2 mice
calcifications [2] = test: In vivo whole body fluorescence, 2D mode (FMT instrument); set-up: species or system DBA/2 mice; conditions: standard sensitivity settings
Protocol: (§1) We used the FMT™ 2500 instrument from VisEn Medical Inc. (Bedford, MA). Mice were anesthetized with Isofluran (1.5% air 2L/min), depilated in the scanning area and a background measurement was taken for both wavelengths (680 nm and 750 nm). After this procedure the animals received both OsteoSense 750® (2 nmol in a volume of 150 µl) and Fetuin-A Alexa 680 (50 µl of a 7mg/ml solution) by intraperitoneal injection. 24 h after this application, the mice were analyzed in the FMT again and the fluorescence intensity was detected. Reconstruction of the data was performed by VisEn software.

calcifications [3] = test: In vivo 3D fluorescence molecular tomography of whole mice; set-up: species or system DBA/2 mice
Protocol: as §1

calcifications [4] = test: Combined fluorescence molecular tomography and micro computed tomography (CT-FMT fusion); format: in vivo, mice
Protocol: A dual energy µCT for small animals (TomoScope DUO, CT-Imaging, Erlangen, Germany) was used for anatomical image acquisition. The two electron tubes were both run at energies of 65KV. Each flat panel detector acquired 720 projections at 5 fps, containing 1032x1012 pixels with a pixel size of (50µm)^2. A full rotation was performed and the scan time was 90 seconds per subscan covering 30.8 mm in the transversal direction. Two subscans were acquired to cover almost the entire mouse body. A Feldkamp algorithm was used for reconstruction with isotropic voxel size of […], dimensions of 600x500x440, field of view of 42mm x 35mm x 30.8mm and a soft reconstruction kernel (T10).
The FMT probe was injected 24 hours before imaging through i.v. tail vein injection. Hair was removed with depilatory crème around the region of interest. For preparations and imaging, mice were anesthetized with Isofluran. […]
The reconstructed 3D data sets from CT and FMT were fused by computing a rigid body transformation minimizing the residual error between fiducial markers detected in both modalities. […] The average number of markers that were found in both modalities was 12 with average fiducial error of 0.174mm, which was evaluated on a representative set of 31 scans. […]

calcified lesions = test: Histology: staining of calcified lesions with unlabelled or Alexa Fluor 488 labelled fetuin-A (injected or applied to sections); format: in vivo, fetuin-A deficient mice
Protocol: The mice were injected with unlabelled or Alexa Fluor® 488 coupled fetuin-A. They received 100 µl / 25 g body weight of a 7 mg/ml solution. Five hours after injection the mice were killed, organs were harvested, embedded in TissueTek (Sakura), and snap-frozen and in liquid nitrogen. Serial cryotome sections were prepared and fixed in ice cold acetone. For general histology hematoxilin/eosin staining and von-Kossa staining were performed.
To localize unlabelled fetuin-A, sections were incubated for one hour with a homemade polyclonal rabbit anti bovine fetuin-A antibody followed by secondary goat anti rabbit Alexa Fluor® 546 antibody and DAPI staining. To localize calcified lesions, sections were incubated with Alexa Fluor® 488-coupled fetuin-A for one hour and then were counterstained with DAPI. Sections of organs from mice injected with Alexa Fluor® 488 labelled Fetuin A were stained with DAPI only.

Molecule	combined signal from regions of interest (ROI), kidneys (calcifications [1]; Fetuin-A-/- mice, kidneys)	combined signal from regions of interest (ROI), lungs (calcifications [1]; Fetuin-A-/- mice, lungs)	staining of heart (explanted organ) (calcifications [1]; fetuin-A deficient mice)	staining of brown fat, lungs and kidneys (explanted organs) (calcifications [1]; fetuin-A deficient mice, heavily calcified organs)	tissue accumulation, Fetuin-A-/- versus wildtype, kidneys (calcifications [1]; kidneys)	tissue accumulation, Fetuin-A-/- versus wildtype, lungs (calcifications [1]; lungs)	signal (2D reflectance images) (calcifications [1]; tissues (brown fat, heart, lung, kidneys) from wildtype mice, OsteoSense at both 1-fold and 10-fold sensitivity setting)	combined signal from regions of interest (ROI), kidneys (calcifications [1]; wildtype mice, kidneys)	combined signal from regions of interest (ROI), lungs (calcifications [1]; wildtype mice, lungs)	whole body 2D scan signal (calcifications [2]; D2, Fetuin-A+/+ wildtype mice)	whole body 2D scan signal (calcifications [2]; D2, Fetuin-A-/- mice)	3D fluorescence tomography staining pattern (calcifications [3]; DBA/2 wildtype mouse (Fig. 6A, B))	excretion route (staining of the digestive tract, signal associated with faeces) (calcifications [3]; digestive tract)	3D fluorescence tomography signal (calcifications [3]; fetuin-A deficient (knockout) mouse (Fig. 6D))	3D fluorescence signal strength (calcifications [3]; wildtype and knockout animal (Fig. 6A, C), higher in wildtype than in knockout)	CT-FMT fused signal localization (calcifications [4]; D2, fetuin-A+/+ wildtype mice)	CT-FMT fused signal localization (calcifications [4]; D2, fetuin-A-/- mice)	lesion size detected compared with established histology methods (H/E, von Kossa) (calcified lesions; Fig. 1, injected into live animals or applied to histological sections)	detection of lesions in serial sections of the heart (calcified lesions; Fig. 2, fetuin-A deficient mouse, compared with Hematoxylin-Eosin and von Kossa)	staining of calcified lesions (calcified lesions; fetuin-A deficient mice, both in vivo (injected) and on sections)
Fetuin-A Alexa 680: Fetuin-A monomer (Sigma Aldrich, F2379), purified by gel chromatography, coupled to Alexa Fluor® 680 dye	6740 counts/energy	3303 counts/energy	stained weakly	strongly stained	increased over six-fold	almost doubled	0.25 Count/Energy	1025 counts/energy	1816 counts/energy	no signal	strong signals	outlined the gut, kidneys and the brown fat pad in the neck	at least partially excreted through this route	highly detected in the neck and in the left kidney but also in the gut	much higher	low signal in the digestive tract	faint signal in the neck and the thorax, but a higher one in the kidney and the digestive tract	–	–	–
B1	–	–	–	–	–	–	–	–	–	–	–	–	–	–	–	–	–	also detected much smaller lesions	enabled the detection of an additional very small lesion	readily stained calcified lesions
